# Key:
# TRβ [1] = target: T1, TRβ (Homo sapiens, UniProt P10828); experiment: ΔSV-CAT reporter cotransfection assay in CV-1 cells with TRβ expression plasmid, ±T3; type: cell-based; parameters: expressed in transfected cells; host or cells: CV-1 (monkey kidney); settings: TRβ expression vector
# T1 sequence (P10828 1-461): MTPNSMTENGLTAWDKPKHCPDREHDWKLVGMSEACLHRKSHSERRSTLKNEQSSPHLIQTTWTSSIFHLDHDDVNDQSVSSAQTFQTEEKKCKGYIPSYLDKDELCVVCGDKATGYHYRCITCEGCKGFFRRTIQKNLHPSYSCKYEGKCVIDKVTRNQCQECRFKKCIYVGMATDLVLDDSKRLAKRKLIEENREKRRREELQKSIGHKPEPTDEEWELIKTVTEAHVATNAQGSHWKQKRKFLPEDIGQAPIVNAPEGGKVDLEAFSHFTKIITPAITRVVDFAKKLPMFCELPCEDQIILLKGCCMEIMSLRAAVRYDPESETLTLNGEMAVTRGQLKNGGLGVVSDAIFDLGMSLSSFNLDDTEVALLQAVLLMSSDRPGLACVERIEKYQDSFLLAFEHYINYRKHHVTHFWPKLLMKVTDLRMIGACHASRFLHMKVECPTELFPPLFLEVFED
# Text: Receptor expression plasmids used in the following cotransfection assays have been described previously (pRShTRβ [see Thompson, et al., Proc. Natl. Acad. Sci. U.S.A. 86: 3494-3498 (1989)]; pRShRARα [see Giguere, et al., Nature 330: 624-629 (1987)]; pRShRARβ and pRshRARγ [see Ishikawa, et al., Mol. Endocrinol, 4: 837-844 (1990)]; and pRShVDR, [Schule, et al., Cell 61: 497-504 (1990)]. A basal reporter plasmid ΔSV-CAT was constructed by replacing the TK promoter in TK-CAT [Damm, et al., Nature 339: 593-597 (1989)] with the SphI-HindIII fragment of the SV40 early promoter. All of the recombinant CAT reporter plasmids used herein harbor a single copy of the indicated oligonucleotides at the unique HindIII site upstream of the SV40 promoter. […] To improve production of receptor proteins in COS cells, a new eukaryotic expression vector pCMX was prepared by modifying the plasmid CDM8 [Seed, B., Nature 329: 840-842 (1987)]. The CDM8 was cut with MluI and StuI in order to release the DNA fragment encoding the CMV/T7 promoter, SV40 small t intron/poly A signal, polyoma virus enhancer/origin, and SV40 enhancer/origin. The resulting fragment was ligated to a larger fragment of PvuII-digested PUC19. An internal deletion was introduced between unique BamHI and BclI sites present in the DCM8 portion. The stuffer sequence flanked by XbaI sites was replaced with a synthetic polylinker coding for 5′-KpnI/Asp718-EcoRV-BamHI -MscI-NheI-3′, followed by a stretch of 5′-[…]-3′ (SEQ ID NO:48) which can function as a universal termination signal for protein translation. The coding sequence of the luciferase [de Wet, et al., Mol. Cell. Biol. 7: 725-737 (1987)] and human TRβ, RARα, and VDR was placed in the polylinker region of the pCMX, generating pCMX-LUC, Pcmx-Htrβ, pCMX-hRARα, and pCMX-hVDR, respectively. The translation start site of the RARα was modified to […] by attaching the synthetic linker encoding a consensus translation start signal [Hollenberg, et al., Cell 55: 899-906 (1988)].
# (§1) For cotransfection assays, a monkey kidney cell line CV-1 was kept in Dulbecco's modified Eagle's medium (DMEM) supplemented with 10% charcoal-resin double split calf bovine serum. Transfections were performed via calcium-phosphate precipitation method as described by Umesono, et al. in Cell 57: 1139-1146 (1989), with 0.5 μg of a pRS receptor expression plasmid, 1.0 μg of a reporter CAT plasmid, 5 μg of pRAS-βGAL [Umesono, et al., Cell 57: 1139-1146 (1989)] as an internal control, and 8.5 μg of carrier plasmid pUC19. The cells were transfected for 8 hours; after washing the DNA precipitates, the cells were then incubated for an additional 36 hours with or without the ligand (T3, 100 nM; RA, 1 μM; 1,25-(OH)2 vitamin D3, 100 nM). Cell extracts were prepared for βGAL and CAT assays, as described by Umesono, et al., supra. Transfection of F9 teratocarcinoma cells was carried out employing a similar method except the cells were incubated for 12 hours in the presence of the DNA precipitates, and the RA was added at 1 μM for another 24 hours before harvesting the cells. 2, 5, and 4 μg of the reporter, pRAS-βGAL, and pUC19 were used, respectively.
# Target hormone response elements described in FIG. 3 were synthesized as double-stranded oligonucleotides with an overhanging tetranucleotide (5′-agct-3′) at both ends. A single copy of these oligonucleotides was cloned at the unique HindIII site present in the basal promoter CAT construct ΔSV-CAT. Capitalized portions in the nucleotide sequences correspond to those found in the natural promoters except TREp and rGH21, which are synthetic. Bold letters indicate the “AGGTCA” motif and “X” denotes a nucleotide substitution from this motif.
# TRβ [2] = target: T1, TRβ; experiment: Gel retardation DNA-binding assay with TRβ-expressing COS cell extracts; parameters: expressed in transfected cells; host or cells: COS cells (whole-cell extract); settings: for competition for TRβ binding to 32P-labeled MHC-N: 50-fold excess of unlabeled oligonucleotide, COS cell extracts; for TRβ binding to labeled oligonucleotide probe: gel retardation, TRβ COS cell extract
# Description: For DNA binding assays, COS cells were cultured in DMEM with 10% calf bovine serum and transfected by the calcium phosphate method with 20 μg of the pCMX receptor expression plasmid for 6 hours followed by a glycerol shock. After incubating the transfected COS cells for another 48 hours, the cells were harvested to prepare extracts for the DNA binding assay, carried out as described by Damm et al., Nature 339: 593-597 (1989). The extracts were made in 20 mM HEPES (pH 7.4), 0.4 M KCl, 2 mM DTT and 20% glycerol. A similar method was employed to prepare a whole cell extract from F9 stem cells. For the binding, 5 μg (COS) or 10 μg (F9) of proteins was incubated on ice for 20 minutes, first in 20 mM HEPES, 80 mM KCl, 1 mM DTT, 0.1% NP40, 2.5 μg of poly dI/dC, and 10% glycerol (cold competitor oligonucleotides, when included, were added during this pre-incubation period). Then 40 fmole of ^32P-labeled oligonucleotide probe (1-2×10^5 cpm, prepared by filling-in reaction using Klenow polymerase in the presence of α-^32P-dCTP) was added to the reaction mixture, followed by incubation at room temperature for 30 minutes. The receptor-DNA complexes were resolved by electrophoresis through 5% polyacrylamide gel containing 5% glycerol at 6 V/cm at room temperature.
# Oligonucleotides listed in FIG. 3 were used as a probe to test specific DNA-binding of the RARα and TRβ in a gel retardation assay.
# Using the mobility shift assay, the DNA-binding capacity of extracts from COS cells expressing TRβ and RARα to these sequences was also tested.
# [3] = test system: F9 teratocarcinoma stem cells; experiment: CAT reporter transfection into RA responsive F9 teratocarcinoma stem cells; type: cell-based, mouse; settings: RA 1 μM, 24 hours; no transfected receptor
# Description: as §1
# Similarly, when the same set of reporters as in FIG. 4 were transfected into F9 cells, only MHC-R (5-nucleotide spacer) and TREp are potent RAREs. In contrast, its RARE antecedents (MHC-N, MHC+1, MHC-T) are inert.
Substance,T3 responsiveness (in words) (TRβ [1]),competition for TRβ binding to 32P-labeled MHC-N (TRβ [2]),other results
"M1: MHC-N with nucleotide substitutions in the proposed direct repeat motif (SEQ ID NO:15) (AGCTGGAAATGACAGGAGGACAGCAAGCT; DNA, backbone not given here; double-stranded DNA response element with agct overhangs, cloned into reporter)",completely silent to T3,did not,
"M2: MHC-N mutant with nucleotide substitutions in the presumed palindrome (SEQ ID NO:16) (AGCTGGAGGTGACGAAAGGACAGCAAGCT; DNA, backbone not given here; double-stranded DNA response element with agct overhangs, cloned into reporter)",retains a T3 response though impaired,competed,
"M3: MHC-N with nucleotide substitutions in the proposed direct repeat motif (SEQ ID NO:17) (AGCTGGAGGTGACAGGAAAACAGCAAGCT; DNA, backbone not given here; double-stranded DNA response element with agct overhangs, cloned into reporter)",completely silent to T3,did not,
"MHC+1: MHC-N with half-site spacing increased by one nucleotide (SEQ ID NO:22) (AGCTGGAGGTGAACAGGAGGACAGCAAGCT; DNA, backbone not given here; double-stranded response element with agct overhangs, cloned into reporter plasmid)",,,"function as RARE in F9 cells [3]: inert; competition for TRβ binding (mobility shift assay) (TRβ [2]; unlabeled competitor oligonucleotide, COS cells expressing TRβ): poor competitors"
"MHC-D: segment of the MHC sequence including an adjacent sequence; deletion from MHC-L (SEQ ID NO:13) (AGCTTGAGGTGACAGGAGGACAGCAGCT; DNA, backbone not given here; double-stranded DNA response element with agct overhangs, cloned into reporter)",recovery of the full response,,
"MHC-L: wild-type MHC sequence encoding a TRE in the MHC gene promoter (SEQ ID NO:11) (AGCTCCTTGGCTCTGGAGGTGACAGGAGGACAGCAGCT; DNA, backbone not given here; double-stranded response element with agct overhangs, cloned into reporter plasmid)",responsive to T3,,
"MHC-S: restricted region of MHC-L corresponding to the predicted palindrome (SEQ ID NO:12) (AGCTCTCTGGAGGTGACAGGAAGCT; listed as DNA, further chemistry not given here)",failed to confer T3 responsiveness,,
"MLV-LTR: thyroid response element found in the murine Maloney Leukemia Virus LTR (SEQ ID NO:19) (DNA AGCTCAGGGTCATTTCAGGTCCTTGAAGCT; listed as DNA, chemistry not given here) [reference compound]",confers T3 inducibility,,TRβ binding to labeled oligonucleotide probe (TRβ [2]): high affinity
"rGH21: rat growth hormone gene sequence proposed as a candidate TRE (SEQ ID NO:20) (AGCTAGGTAAGATCAGGTAAGTAGCT; listed as DNA, chemistry not fully specified) [reference compound]",fails to confer T3-dependent transactivation,,TRβ binding to labeled oligonucleotide probe (TRβ [2]): binds very poorly

# Reference: patent US6492137B1, “Response element compositions and assays employing same” (The Salk Institute for Biological Studies, priority 1989, dated 2002)
